Reference: patent publication US20110300168A1, “COMPOSITIONS AND METHODS FOR INDUCING AN IMMUNE RESPONSE AGAINST INFLUENZA ANTIGENS” (THE JOHNS HOPKINS UNIVERSITY, priority 2010, published 2011)

How the values were obtained:
Assay type in all cases: cell-based, human
CD8+ T cells [1] = settings: control donors aged 21-42, wk 0 directly ex vivo, peptide pulsed T2 cells 1:1; positive if SFC greater than 5 per 100000 CD8+ T cells, p<0.05
CD8+ T cells [2] = settings: for control donors in whom the epitope elicited a response: 12 control donors, aAPC assay, ICS; for geriatric donors with CD8+ T cells responding to the epitope: nine geriatric donors aged 65 and above, IFNγ ICS after 3 weeks of aAPC stimulation
CD8+ T cells [3] = test system: CD8+ T cells

Row | Sequence | number of donors who responded by IFNγ ELISpot (CD8+ T cells [1]) | control donors in whom the epitope elicited a response (CD8+ T cells [2]) | geriatric donors with CD8+ T cells responding to the epitope (CD8+ T cells [2]) | CD8+ T cells specific by IFNγ expression (ICS) (CD8+ T cells [2]; Donor C1, after 3 weekly aAPC stimulations, restimulated with peptide pulsed T2 cells 1:1) [%] | CD8+ T cells specific for the epitope by A2-Ig dimer staining (CD8+ T cells [3]) [%]
1 | CVNGSCFTV (listed as Influenza virus) [NA231-239, subdominant influenza peptide, pool 1] | no donor responded | – | – | – | –
2 | IMDKNIILKA (listed as Influenza virus) [NS1123-132, subdominant influenza peptide, pool 2] | One | majority of the donors | Donors E2, E3, E4, and E8 responded | – | –
3 | NMLSTVLGV (listed as Influenza virus) [PB1413-421, subdominant influenza peptide, pool 1] | Four out of the six | majority of the donors | none responded | 37 | 75
4 | SLCPIRGWAI (listed as Influenza virus) [NA75-84, subdominant influenza peptide, pool 2] | 2 | – | – | – | –
5 | SLENFRAYV (listed as Influenza virus) [PA225-233, subdominant influenza peptide, pool 1] | One | – | – | – | –
